Source: publication PMC6450621, “Changes of drug pharmacokinetics mediated by downregulation of kidney organic cation transporters Mate1 and Oct2 in a rat model of hyperuricemia” (PLoS ONE, 2019)
Several values for one entry are separate records, joined by “and”; a condition that tells them apart may be missing. Identical values can stand only once.

Columns and labels:
Mock cells = assay: Uptake of MPP+ by mock cells (background for MATE1-expressing cells); format: cell-based; conditions: replicates and mean
Experimental: Dunnett's test was used for uptake study to compare the control group to groups treated with drugs.
Percentages of control were calculated as the ratio of MATE1-mediated uptake of MPP^+ that obtained after subtraction of the uptake of MPP^+ by mock cells in compound treated groups to that in control group.

[1] = Plasma concentration of oxonic acid and adenine in hyperuricemic rats; format: in vivo, rat; conditions: hyperuricemic rats given oral oxonic acid […] and adenine 0.1 g/kg; detection limit 100 μM for oxonic acid
human MATE1 = biological target: T1, human MATE1 (Homo sapiens, UniProt Q96FL8); assay: Uptake of [3H]MPP+ by MATE1-expressing HEK293 cells; format: cell-based; conditions: for MATE1-mediated uptake of [3H]MPP+, percentage of control: HEK293/hMATE1 minus mock, 0.25 nM [3H]MPP+, 0.5 min, 37°C; for MATE1-mediated uptake of MPP+, % of Control: after subtraction of uptake by mock cells; for MATE1-mediated uptake of MPP+, % of Control / C/M ratio of MPP+ uptake, MATE1-expressing cells: replicates and mean
T1 construct: expressed in transfected cells; host or cells: HEK293 (HEK293/hMATE1; gift from Dr. Inoue, Tokyo University of Pharmacy and Life Science)
T1 sequence (Q96FL8 1-570): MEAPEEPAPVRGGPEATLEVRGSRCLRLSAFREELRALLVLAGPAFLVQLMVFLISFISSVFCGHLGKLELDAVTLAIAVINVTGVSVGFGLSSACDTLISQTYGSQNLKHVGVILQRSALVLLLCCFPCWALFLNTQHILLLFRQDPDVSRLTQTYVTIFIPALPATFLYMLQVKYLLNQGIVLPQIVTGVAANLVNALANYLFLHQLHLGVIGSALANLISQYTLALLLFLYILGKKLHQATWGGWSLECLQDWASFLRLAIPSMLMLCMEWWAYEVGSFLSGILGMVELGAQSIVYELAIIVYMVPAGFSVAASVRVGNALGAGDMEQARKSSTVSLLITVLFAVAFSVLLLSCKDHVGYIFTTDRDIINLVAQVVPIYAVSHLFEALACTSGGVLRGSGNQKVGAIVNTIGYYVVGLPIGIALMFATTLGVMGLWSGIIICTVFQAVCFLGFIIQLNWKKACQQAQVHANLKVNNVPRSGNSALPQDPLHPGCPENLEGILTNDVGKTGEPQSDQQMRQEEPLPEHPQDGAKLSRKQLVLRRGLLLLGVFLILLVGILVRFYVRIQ
Experimental: HEK293 cells transfected with human MATE1 (HEK293/hMATE1) and vector alone (mock) were gifts from Dr. Inoue (Tokyo University of Pharmacy and Life Science). […] HEK293/mock and HEK293/hMATE1 cells were plated at a density of 3.0 × 10^5 cells/well on 24-well plates and cultured for two days before an uptake assay. […] Radioactivity was measured with a liquid scintillation counter (Hitachi Aloka Medical, Tokyo, Japan). Part of the lysate was used for the determination of total protein amount with Bio-Rad protein assay dye reagent. Uptake of MPP^+ was expressed as a cell-to-medium ratio (μL/mg protein) obtained by dividing the uptake amount by the concentration of substrate in the TM. Percentages of control were calculated as the ratio of MATE1-mediated uptake of MPP^+ that obtained after subtraction of the uptake of MPP^+ by mock cells in compound treated groups to that in control group.

## O=C(O)c1nc(=O)[nH]c(=O)[nH]1 [oxonic acid]
Mock cells; Oxonic acid 50 µM
  C/M ratio of MPP+ uptake, Mock cells: 18.7 µL/mg protein and 13.1 µL/mg protein and 12.3 µL/mg protein
Mock cells; Oxonic acid 50 µM, mean
  C/M ratio of MPP+ uptake, Mock cells: 14.7 µL/mg protein
Mock cells; Oxonic acid 500 µM
  C/M ratio of MPP+ uptake, Mock cells: 19.2 µL/mg protein and 28.0 µL/mg protein and 20.9 µL/mg protein
Mock cells; Oxonic acid 500 µM, mean
  C/M ratio of MPP+ uptake, Mock cells: 22.7 µL/mg protein
[1]
  Plasma concentration: lower than 100 μM
Human MATE1; 50 μM test compound
  MATE1-mediated uptake of [3H]MPP+, percentage of control: 101.5%
Human MATE1; 500 μM test compound
  MATE1-mediated uptake of [3H]MPP+, percentage of control: 98.2%
Human MATE1; 50 and 500 μM of each
  Inhibitory effect on MATE1-mediated MPP+ uptake: No inhibitory effects
Human MATE1; Oxonic acid 50 µM
  MATE1-mediated uptake of MPP+, % of Control: 93.3 % of Control and 90.1 % of Control and 121.0 % of Control
  C/M ratio of MPP+ uptake, MATE1-expressing cells: 177 µL/mg protein and 232 µL/mg protein and 183 µL/mg protein
Human MATE1; Oxonic acid 50 µM, mean
  MATE1-mediated uptake of MPP+, % of Control: 101.5 % of Control
  C/M ratio of MPP+ uptake, MATE1-expressing cells: 197 µL/mg protein
Human MATE1; Oxonic acid 500 µM
  MATE1-mediated uptake of MPP+, % of Control: 118.1 % of Control and 83.7 % of Control and 92.8 % of Control
  C/M ratio of MPP+ uptake, MATE1-expressing cells: 173 µL/mg protein and 190 µL/mg protein and 235 µL/mg protein
Human MATE1; Oxonic acid 500 µM, mean
  MATE1-mediated uptake of MPP+, % of Control: 98.2 % of Control
  C/M ratio of MPP+ uptake, MATE1-expressing cells: 199 µL/mg protein
